Experimental data taken from the METLIN SMRT retention time set (Domingo-Almenara et al. 2019).

Experiment: gradient 5% acetonitrile 3 min, to 50% in 2 min, to 85% in 15 min, held 3 min, 100 µL/min
Conditions: column: Zorbax Extend-C18 2.1 x 50 mm; eluents: water / acetonitrile, 0.1% formic acid
Summary of the method: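 The mobile phases were water and acetonitrile, each with 0.1% formic acid, pumped at 100 μL/min through a Zorbax Extend-C18 column (2.1 × 50 mm, 1.8 μm). Pure standards were injected as mixtures of ~100 molecules and detected by a quadrupole time-of-flight mass spectrometer in positive and negative ionization mode. Retention time came from computationally picked adduct peaks, each inspected by hand.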

RP-LC retention time [s]	Compound
584	Cc1nc2scc(C)n2c(=O)c1S(=O)(=O)N1CCN(c2ccccn2)CC1
1120	CCCCCn1c(=O)c2ccccc2n(Cc2nc(-c3ccc(OC)c(OC)c3)no2)c1=O
776	CCOC(=O)N1CCc2c(sc(NC(=O)c3cn(C)nc3OC)c2C#N)C1
999	CCc1nc(OCC(=O)NCc2ccc(C)cc2)c2c(C)c(C)oc2n1
919	O=C(NCc1cc(F)ccc1F)C1CN(S(=O)(=O)c2cccnc2)CC12CCCCC2 (stereo unspecified)
788	COCCCNC(=O)C1COc2ccc(NC(=O)c3ccc(Br)cc3)cc2C1 (stereo unspecified)
911	CSc1ccc(Cl)c(C(=O)Nc2cccn3c(C4CCC4)nnc23)c1
708	Cn1ncc2c(N3CCOCC3)nc(C(=O)NCc3ccc(F)cc3)nc21
578	Cn1c(=O)c2cc(C(=O)N3CCN(c4ccccn4)CC3)sc2n(C)c1=O
588	CCN1CCCC1CN(CC(=O)N1CCNCC1)S(=O)(=O)c1c(C)cc(C)cc1C (stereo unspecified)
842	Cc1ccc(NC(=O)N2CCC(n3cnc4ccc(F)cc4c3=O)CC2)cc1F
689	O=C(Nc1ccc(N2CCN(c3ccccc3)C2=O)nc1)c1cccnc1
690	Cc1noc2nc(CCC(=O)NCc3ccccn3)nc(N3CC(C)CC(C)C3)c12 (stereo unspecified)
1140	O=C(Cn1cccc1-c1nc(-c2ccc3c(c2)OCO3)no1)Nc1ccc2c(c1)CCC2
928	O=C(Cn1nc(N2CCSCC2)c2ccccc2c1=O)Nc1ccccc1F
590	Cc1cc(C)c2c(N3CCOCC3)nc(C(=O)NCc3cc(F)ccc3F)nc2n1
729	COC(=O)c1ncn2c1C(=O)N(Cc1cccc(F)c1)C(C)(C(=O)NCc1ccccc1)C2 (stereo unspecified)

RP-LC retention time [s]	Compound
637	Cc1cccn2cc(-c3cccc(S(=O)(=O)N4CCCC4)c3)nc12
736	Cc1ccc(CNC2=NCCNC23CCN(S(=O)(=O)c2ccc(C)cc2)CC3)cc1
629	Cc1c(C(=O)N2CCCCC2)c(S(=O)(=O)N2CCN(c3ccccn3)CC2)c(C)n1C
991	C=CCn1c(C)c(CC(=O)Nc2ccc(C)cc2)c(=O)n2nc(-c3ccc(C)cc3)nc12
605	CC(C)CN1CCn2cc(C(=O)N3CCN(c4ccccc4)CC3)nc2C1
772	CCOc1cc(=O)n2c(c1C(=O)NCC1CCCCC1)CCCCC2
866	O=C(Nc1ccc(C(=O)N2CCCCC2)c(N2CCCCCC2)c1)C1CC1
895	O=C1CCCN1CCCn1c(SCc2c(F)cccc2F)nc2ccccc2c1=O
766	O=C(Cc1nnc(-c2cnccn2)o1)Nc1ccc(C(F)(F)F)cc1
558	CCc1ccc(CNc2nc3ccccc3n2CCN(CC)CC)cc1
1110	O=C(Nc1nc2c(s1)CCc1ccccc1-2)c1ccc(S(=O)(=O)N2CCCC2)cc1
769	CCn1nccc1C(=O)N1CCCN(C2=NS(=O)(=O)C(c3ccc(C)cc3)=C2C)CC1
1090	Cc1ccc(-c2ccc(-n3nc(C)c(S(=O)(=O)NCc4ccccc4)c3C)nn2)cc1
853	O=C(NC1CCCCC1)C1CCN(Cc2cc3ccccc3n2Cc2ccc(Cl)cc2)CC1
638	CCN1C(=O)NC(c2ccc(C(F)(F)F)cc2)C2=C1CN(CCC(=O)N1CCOCC1)C2=O (stereo unspecified)
689	c1ccc(-c2nc(-c3cnccn3)no2)c(OC2CCN(Cc3ccc4c(c3)CCO4)C2)c1 (stereo unspecified)
678	O=C(Cc1ccc(NS(=O)(=O)c2ccc3c(c2)OCCO3)cc1)NC1CC1

Compound	RP-LC retention time [s]
CN1C(=O)NC2NCN(C)C2C1=O (stereo unspecified)	576
COc1ccc2c(c1)C1(CCN(C(=O)Nc3ccccc3C)C1)C(=O)N2 (stereo unspecified)	707
